Assay results as given in patent US20060094649A1, “Hla-a1,-a2,-a3,-a24,-b7, and-b44 tumor associated antigen peptides and compositions” (priority 2002, published 2006).
“Also recorded” adds a separate entry of the source. Where two headings read alike, the source gives them in different places. One block for each molecule: values may come before it. No end group written: not given here.

Legend:
[1] = tested on: tumor cell lines expressing the TAA; experiment: CTL recognition of endogenous targets (tumor cell lines expressing the TAA); format: cell-based, human; details: for Tumor target cell line: only wells positive for peptide-pulsed targets
[2] = tested on: wildtype peptide-pulsed target cells; experiment: CTL recognition of wildtype peptide-pulsed targets; format: cell-based, human; details: for pulsed EHM target cell line: positive responses/total tested, positive = 10% specific lysis above background or twice background and at least 50 pg IFNg/well in at least one of 48 wells
[3] = molecular target: HLA-A*6801 (Homo sapiens, UniProt P04439, A269V/D185E/E176V/E277Q/E87N/F33Y/G231S/I121M/I166T/I218V/L180W/L300P/L318F/N151K/P208A/P217A/Q86R/R169H/T345S); experiment: Class I peptide-binding assay, HLA-A*6801; details: Table 16b, Her2/neu-derived
[4] = molecular target: HLA-A*3301 (Homo sapiens, UniProt P04439, A270S/D185E/E176V/E277Q/E87N/F33T/G231S/H175R/I121M/I218V/I322F/K168Q/K210R/L300P/L318F/M331R/P217A/Q86R/Q94H/R138Q/T323A/T345S/T97I/V358M/Y195H); experiment: Class I peptide-binding assay, HLA-A*3301; details: Table 16b, Her2/neu-derived
[5] = molecular target: HLA-A*3101 (Homo sapiens, UniProt P04439, A270S/D185E/E176V/E277Q/F33T/G231S/G80R/H175R/I121M/I218V/I322F/K168Q/L300P/L318F/M331R/P217A/Q94H/R138Q/T323A/T345S/T97I/V358M); experiment: Class I peptide-binding assay, HLA-A*3101; details: Table 16b, Her2/neu-derived
[6] = molecular target: HLA-A*0301 (Homo sapiens, UniProt P04439); experiment: Class I peptide-binding assay, HLA-A*0301
[7] = molecular target: HLA-A*1101 (Homo sapiens, UniProt P04439, A114D/D185E/E176A/F33Y/L180Q/S129P/T187R); experiment: Class I peptide-binding assay, HLA-A*1101
[8] = molecular target: HLA-B*4002 (Homo sapiens, UniProt P01889, A65T/A93T/A95T/D138N/D201E/D98Y/E176V/E204Q/E69K/K202T/N87E/Q56L/Q94N/R180L/S48T/Y33H/Y91S); experiment: Class I peptide-binding assay, HLA-B*4002 (B44 supertype); details: HER2/neu-derived B44 peptides, Table 27; binding to purified HLA-B*4002
[9] = molecular target: HLA-A*0101 (Homo sapiens, UniProt P04439, A114D/A174V/A182V/D101N/D185E/E176A/E190D/L180R/Q94H/R68K/S129P/T187R/V100A/V91M/W191G); experiment: Class I peptide-binding assay, HLA-A*0101
[10] = molecular target: HLA-A*2402 (Homo sapiens, UniProt P04439, D101N/D140Y/D185E/E176V/E190D/F33S/G103R/G107R/I119L/I121M/I306V/K335N/L105A/L180Q/L300P/N151K/N90K/Q86E/Q94H/R106L/R138H/R89G/T104I/T345S/V100E/W191G/Y123F); experiment: Class I peptide-binding assay, HLA-A*2402; details: Table 19a, CEA-derived A24 binders
[11] = tested on: peptide-pulsed target cells; details: outside investigators; cited from earlier work
[12] = co-emulsified with HPV-derived CTL epitopes; cited from earlier work
[13] = Table 16c, second part, positive/total tested
[14] = 938mel (A3−, Mage2+, Mage3+) and 624mel (A3+, Mage2+, Mage3+)
[15] = SW403 (A3+, p53−) and SW403/p53 transfectant (A3+, p53+)
[16] = Table 16d, second part, positive/total tested
[17] = Table 18a, CEA-derived A1 binders

Molecule: C[C@@H](O)[C@H](NC(=O)[C@@H](N)CCCCN)C(=O)N[C@@H](Cc1ccc(O)cc1)C(=O)N[C@@H](CCC(N)=O)C(=O)NCC(=O)N[C@@H](CO)C(=O)N[C@@H](Cc1ccc(O)cc1)C(=O)NCC(=O)N[C@@H](Cc1ccccc1)C(=O)N[C@@H](CCCCN)C(=O)O
Immunogenicity Tumor ([1]; Table 20): 0/1
Immunogenicity Wildtype ([2]; Table 20): 0/1

Molecule: CC[C@H](C)[C@H](NC(=O)[C@@H](N)[C@@H](C)O)C(=O)N[C@@H](CO)C(=O)N1CCC[C@H]1C(=O)N[C@@H](CC(C)C)C(=O)N[C@@H](CC(N)=O)C(=O)N[C@H](C(=O)N[C@@H](CO)C(=O)N[C@@H](Cc1ccc(O)cc1)C(=O)N[C@@H](CCCCN)C(=O)O)[C@@H](C)O
Immunogenicity Wildtype ([2]; Table 20): 2/3

Molecule: CC[C@H](C)[C@H](NC(=O)CNC(=O)[C@H](Cc1ccccc1)NC(=O)[C@@H](NC(=O)[C@@H](N)C(C)C)C(C)C)C(=O)N[C@@H](CC(C)C)C(=O)N[C@H](C(=O)N[C@@H](CCCCN)C(=O)N[C@@H](CCCNC(=N)N)C(=O)O)[C@@H](C)CC
Immunogenicity Tumor ([1]; Table 20): 0/1

Molecule: CC[C@H](NC(=O)[C@H](CCCNC(=N)N)NC(=O)[C@H](CCCNC(=N)N)NC(=O)[C@@H](NC(=O)[C@@H](N)C(C)C)C(C)C)C(=O)N1CCC[C@H]1C(=O)N[C@@H](Cc1c[nH]cn1)C(=O)N[C@@H](Cc1c[nH]cn1)C(=O)N[C@@H](CCC(=O)O)C(=O)N[C@@H](CCCCN)C(=O)O [VVRRBPHHEK]
Immunogenicity Tumor ([1]; Table 20): 1/2
Immunogenicity Wildtype ([2]; Table 20): 1/2

Molecule: CC[C@H](C)[C@H](NC(=O)CNC(=O)[C@H](Cc1ccccc1)NC(=O)[C@@H](NC(=O)[C@@H](N)C(C)C)C(C)C)C(=O)N[C@@H](CC(C)C)C(=O)N[C@H](C(=O)N[C@@H](CCCCN)C(=O)N[C@@H](CCCNC(=N)N)C(=O)O)[C@@H](C)CC [compound 57]
Number of CTL inductions yielding positive responses/total tested, Wildtype-pulsed EHM target cell line ([2]; positive = 10% specific lysis above background (51Cr release) or twice background and at least 50 pg IFNγ/well in at least one of 48 wells): 1/3

IC50 [3]: 0.015 µM
IC50 [4]: 0.193 µM
IC50 [5]: 0.29 µM
IC50 ([6]; Table 16b, Her2/neu-derived): 3.67 µM
IC50 ([7]; Table 16b, Her2/neu-derived): 0.375 µM
Molecule: CC[C@H](C)[C@H](NC(=O)CNC(=O)[C@H](Cc1ccccc1)NC(=O)[C@@H](NC(=O)[C@@H](N)C(C)C)C(C)C)C(=O)N[C@@H](CC(C)C)C(=O)N[C@H](C(=O)N[C@@H](CCCCN)C(=O)N[C@@H](CCCNC(=N)N)C(=O)N[C@@H](CCCNC(=N)N)C(=O)O)[C@@H](C)CC [compound 58]

Molecule: CC[C@H](C)[C@H](NC(=O)[C@@H](NC(=O)[C@@H](NC(=O)[C@H](CO)NC(=O)[C@@H](N)Cc1ccccc1)[C@@H](C)O)[C@@H](C)O)C(=O)N[C@@H](CC(N)=O)C(=O)N[C@@H](Cc1ccc(O)cc1)C(=O)N[C@H](C(=O)N[C@@H](CC(C)C)C(=O)N[C@@H](Cc1c[nH]c2ccccc12)C(=O)N[C@@H](CCCNC(=N)N)C(=O)O)[C@@H](C)O [compound 80]
Immunogenicity Wildtype [2, 13]: 0/2

Molecule: CC[C@H](C)[C@H](NC(=O)[C@@H](NC(=O)[C@@H](N)[C@@H](C)O)[C@@H](C)O)C(=O)N[C@@H](CC(N)=O)C(=O)N[C@@H](Cc1ccc(O)cc1)C(=O)N[C@H](C(=O)N[C@@H](CC(C)C)C(=O)N[C@@H](Cc1c[nH]c2ccccc12)C(=O)N[C@@H](CCCNC(=N)N)C(=O)O)[C@@H](C)O [compound 82]
Tumor target cell line [1, 14]: 2/5
pulsed EHM target cell line [2]: 7/7

Molecule: CC(C)C[C@H](NC(=O)[C@H](CC(C)C)NC(=O)[C@H](CC(C)C)NC(=O)[C@H](Cc1ccccc1)NC(=O)[C@H](Cc1c[nH]cn1)NC(=O)[C@@H](NC(=O)[C@@H](N)CC(C)C)C(C)C)C(=O)N[C@@H](CCCCN)C(=O)N[C@@H](CCCCN)C(=O)O [compound 87]
Tumor target cell line [1, 14]: 0/1
Immunogenicity Tumor [1, 13]: 0/1

Molecule: C[C@@H](O)[C@H](NC(=O)[C@@H](N)CCCCN)C(=O)N[C@@H](Cc1ccc(O)cc1)C(=O)N[C@@H](CCC(N)=O)C(=O)NCC(=O)N[C@@H](CO)C(=O)N[C@@H](Cc1ccc(O)cc1)C(=O)NCC(=O)N[C@@H](Cc1ccccc1)C(=O)N[C@@H](CCCCN)C(=O)O [compound 104]
Tumor target cell line [1, 15]: 0/1
Immunogenicity Tumor [1, 16]: 0/1
Immunogenicity Wildtype [2, 16]: 0/1
pulsed EHM target cell line [2]: 0/1

Molecule: CC(C)C[C@H](NC(=O)[C@H](C)NC(=O)[C@@H]1CCCN1C(=O)[C@H](CO)NC(=O)[C@H](Cc1ccc(O)cc1)NC(=O)[C@@H](NC(=O)[C@@H](N)CS)[C@@H](C)O)C(=O)N[C@@H](CC(N)=O)C(=O)N[C@@H](CCCCN)C(=O)O [compound 107]
pulsed EHM target cell line [2]: 0/1

Molecule: CC[C@H](C)[C@H](NC(=O)[C@H](C)NC(=O)[C@H](CCSC)NC(=O)[C@H](C)NC(=O)[C@H](CCCNC(=N)N)NC(=O)[C@@H](NC(=O)[C@H](CCCNC(=N)N)NC(=O)[C@@H](NC(=O)CN)[C@@H](C)O)C(C)C)C(=O)N[C@@H](Cc1ccc(O)cc1)C(=O)N[C@@H](CCCCN)C(=O)O [compound 111]
pulsed EHM target cell line [2]: 0/1

Molecule: CC[C@H](NC(=O)[C@H](CCCNC(=N)N)NC(=O)[C@H](CCCNC(=N)N)NC(=O)[C@@H](NC(=O)[C@@H](N)C(C)C)C(C)C)C(=O)N1CCC[C@H]1C(=O)N[C@@H](Cc1c[nH]cn1)C(=O)N[C@@H](Cc1c[nH]cn1)C(=O)N[C@@H](CCC(=O)O)C(=O)N[C@@H](CCCCN)C(=O)O [compound 116]
Tumor target cell line [1, 15]: 1/2
Immunogenicity Tumor [1, 16]: 1/2
Immunogenicity Wildtype [2, 16]: 1/2
pulsed EHM target cell line [2]: 1/2

Molecule: CC(C)[C@H](NC(=O)[C@@H](N)CCCNC(=N)N)C(=O)N[C@@H](CS)C(=O)N[C@@H](C)C(=O)N[C@@H](CS)C(=O)N1CCC[C@H]1C(=O)NCC(=O)N[C@@H](CCCNC(=N)N)C(=O)O [compound 124]
pulsed EHM target cell line [2]: 0/1

Molecule: CSCC[C@H](NC(=O)[C@H](CC(C)C)NC(=O)[C@H](CCCCN)NC(=O)[C@H](CCCCN)NC(=O)[C@H](Cc1c[nH]cn1)NC(=O)[C@H](CCCNC(=N)N)NC(=O)[C@H](CO)NC(=O)[C@@H](NC(=O)[C@@H](N)CO)[C@@H](C)O)C(=O)N[C@@H](Cc1ccccc1)C(=O)N[C@@H](CCCCN)C(=O)O [compound 126]
pulsed EHM target cell line [2]: 1/2

IC50 [8]: 0.0095 µM
Molecule: CC[C@H](C)[C@H](NC(=O)[C@@H](NC(=O)[C@H](CS)NC(=O)[C@@H](NC(=O)[C@@H]1CCCN1C(=O)[C@@H]1CCCN1C(=O)[C@H](CCC(N)=O)NC(=O)[C@@H]1CCCN1C(=O)[C@H](CC(C)C)NC(=O)[C@H](CCCNC(=N)N)NC(=O)[C@H](CCC(=O)O)NC(=O)CN)[C@@H](C)CC)[C@@H](C)O)C(=O)O [compound 493]

IC50 [9, 17]: 0.045 µM
Molecule: H-HSDSNFSPQY-OH

IC50 [9, 17]: 0.641 µM
Molecule: H-ITEKNSCLY-OH

IC50 [9, 17]: 0.096 µM
Molecule: H-LTDNNSGSY-OH

IC50 ([9]; Table 18c, Mage2/3-derived A1 binders): 0.096 µM
Molecule: H-LTQEFVQENY-OH

IC50 [10]: 1.46 µM
Molecule: H-LWWYNGQSL-OH

Molecule: MAGE3.189: MAGE3-derived A3 supertype wildtype peptide (Table 16c) (LLGDNQIMPK)
CTL induction / antigenicity reported in the literature (in words) [11]: antigenic

Molecule: MAGE3.196 9-mer: MAGE3-derived B7 motif wildtype 9-mer
CTL induction / antigenicity reported in the literature (in words) [11]: antigenicity

IC50 ([6]; Table 16d, p53-derived): 0.55 µM
IC50 ([7]; Table 16d, p53-derived): 0.0043 µM
Molecule: SSCMGGMNR [compound 117]

Molecule: aKXVAAWTLKAAa-NH2 [PADRE®, a=D-alanine, X=cyclohexylalanine]
safety in the trial (in words) [12]: favorable safety profile

Molecule: p53.172B5K10: p53-derived A3 supertype analog, B at position 5 and K at position 10
CTL recognition of tumor / endogenous targets (in words) [1]: transfected tumor target cells; also recorded: p53 transfected tumor targets
CTL recognition of tumor / endogenous targets (in words) ([1]; listed as p53.172.B5KIO): induce tumor-reactive CTLs
CTL recognition of wildtype peptide-pulsed targets (in words) [2]: recognize analog and wildtype peptide-pulsed targets; also recorded: recognize both the wildtype sequence; also recorded: lyse wildtype-peptide coated targets
